According to patent US5202242A, “A83543 compounds and processes for production thereof” (DowElanco, priority 1991, dated 1993):
Converted amounts (≈) assume the structure as drawn. Where two headings read alike, the source gives them in different places.

Key:
[1] = test system: Cotton Aphid; test: Mite/insect screen: Cotton Aphid (CA); assay type: in vivo, Aphis gossypii Glover; details: Aphis gossypii, 4-5 day
Method: (§1) The formula 1A compounds were tested for miticidal and insecticidal activity in the following mite/insect screen. Each test compound was formulated by dissolving the compound in an acetone-alcohol (1:1) mixture containing 23 g of TOXIMUL R (sulfonate/nonionic emulsifier blend) and 13 g of TOXIMUL S (sulfonate/nonionic emulsifier blend) per liter. These mixtures were then diluted with water to give the indicated concentrations.
(§2) Two-spotted spider mites and cotton aphids were introduced on squash cotyledons and allowed to establish on both leaf surfaces. The leaves were then sprayed with 5 ml of test solutions using a DeVilbiss atomizing sprayer at 10 psi. Both surfaces of the leaves were covered until run off and then allowed to dry for one hour. After standard exposure periods percent mortality was evaluated. Additional insects were evaluated using similar formulations and evaluation procedures.

[2] = test system: Neonate Tobacco Budworm; test: LD50 against neonate tobacco budworm (petri dish assay); assay type: in vivo; details: Heliothis virescens; neonate larvae; mortality evaluated at 24 and 48 hours; mean of two tests
Method: The formula 1A compounds were evaluated in the following assay to determine the LD50 against neonate tobacco budworm (Heliothis virescens). A petri dish (100 mm×20 mm) is inverted and the lid lined with a #1 qualitative filter paper. Ten neonate larvae are placed in each dish and a 1 ml test solution is pipetted onto the insects. The petri dish bottom is then placed on the lid to contain the larvae. At 1 hr. after treatment, a small piece of Heliothis diet (modified shurry, Southland Products, Lake Village, AR) is added to each dish. The mortality is evaluated at 24 and 48 hours. Each test is run in triplicate.

[3] = test system: Rootknot Nematode; test: Mite/insect screen: Rootknot Nematode (NEM); assay type: in vivo, Meliiodyne spp.; details: 264 h, 11 day
Method: as §1, §2

[4] = test system: Blowfly Larvae; test: In vitro activity against blowfly larvae; assay type: in vivo; details: 5 ppm
Excerpt: (§3) The formula 1A compounds are also active against members of the insect order Diptera. Tables VIII and IX summarize the in vitro studies of the formula 1A compounds against blowfly larvae and adult stable fly.

[5] = test system: Adult Stablefly; test: In vitro activity against adult stable fly; assay type: in vivo; details: Stomoxys calcitrans
Excerpt: as §3

[6] = test system: German Cockroach; test: Mite/insect screen: German Cockroach (GECR); assay type: in vivo; details: Blattella germanica
Method: as §1, §2

[7] = test system: Two-spotted Spider Mite; test: Mite/insect screen: Two-spotted Spider Mite (TSSM); assay type: in vivo; details: Tetranychus urticae, 4-5 day
Method: as §1, §2

[8] = test system: Aster Leafhopper; test: Mite/insect screen: Aster Leafhopper (ALH); assay type: in vivo; details: Macrosteles fascifrons, 24 hr
Method: as §1, §2

[9] = test system: Beet Armyworm; test: Mite/insect screen: Beet Armyworm (BAW); assay type: in vivo, Spodoptera exiqua; details: Spodoptera exigua, 144 h, 6 day
Method: as §1, §2

[10] = test system: Tobacco Budworm; test: Mite/insect screen: Tobacco Budworm (TBW); assay type: in vivo; details: Heliothis virescens, 144 h, 6 day
Method: as §1, §2

[11] = test system: Southern Corn Rootworm; test: Mite/insect screen: Southern Corn Rootworm (SCRW); assay type: in vivo, Diabrotica undecimpunctata howardi; details: 264 h, 11 day
Method: as §1, §2

[12] = 24 hr, read-out: % mortality 24 hr
[13] = 48 hr, read-out: % mortality 48 hr

Structure (SMILES)	inhibition at 200 ppm [1] [%]	inhibition at 400 ppm [1] [%]	LC50 [2] [µg/mL]	inhibition at 200 ppm [3] [%]	inhibition at 400 ppm [3] [%]	mortality at 5 ppm [5, 12] [%]	mortality at 5 ppm [5, 13] [%]	inhibition at 200 ppm ([6]; 168 h, 7 day) [%]	inhibition at 400 ppm ([6]; 168 h, 7 day) [%]	inhibition at 200 ppm ([6]; 504 h, 21 day) [%]	inhibition at 400 ppm ([6]; 504 h, 21 day) [%]	inhibition at 200 ppm [7] [%]	inhibition at 400 ppm [7] [%]	inhibition at 200 ppm [8] [%]	inhibition at 400 ppm [8] [%]	inhibition at 200 ppm [9] [%]	inhibition at 400 ppm [9] [%]	inhibition at 200 ppm [10] [%]	inhibition at 400 ppm [10] [%]	inhibition at 200 ppm [11] [%]	further results
CCC1CCCC(OC2CCC(N(C)C)C(C)O2)C(C)C(=O)C2=CC3C(C=C(C)C4CC(OC5OC(C)C(OC)C(O)C5OC)CC43)C2CC(=O)O1 (stereo not shown) [Compound A83543L]	0	0	26 (≈ 35.5 µM)	0	0	70	100	40	0	100	100	0	0	100	100	100	100	100	100	0	% mortality [4]: 90%; inhibition at 400 ppm [11]: 0%
CCC1CCCC(OC2CCC(NC)C(C)O2)C(C)C(=O)C2=CC3C(C=CC4CC(OC5OC(C)C(OC)C(O)C5OC)CC43)C2CC(=O)O1 (stereo not shown) [Compound A83543M]	0	0	22.6 (≈ 32.1 µM)	0	0	60	100	0	0	20	40	0	0	60	100	0	0	70	100	0	inhibition at 400 ppm [11]: 0%
CCC1CCCC(OC2CCC(NC)C(C)O2)C(C)C(=O)C2=CC3C(C=C(C)C4CC(OC5OC(C)C(OC)C(O)C5OC)CC43)C2CC(=O)O1 (stereo not shown) [Compound A83543N]	0	0	40 (≈ 55.7 µM)	0	0	20	90	0	0	0	0	0	0	100	100	90	100	100	100	0	inhibition at 400 ppm [11]: 0%
